The Ki is a measure of affinity in units of concentration, obtained from inhibition or displacement.

Where only a bound is given, the exact number is not on record here.

From patent publication US11596639B2, “Substituted indole Mcl-1 inhibitors” (Vanderbilt University, priority 2016, dated 2023) come the findings set out here.

Chain of Mcl-1 (Q07820 172-327): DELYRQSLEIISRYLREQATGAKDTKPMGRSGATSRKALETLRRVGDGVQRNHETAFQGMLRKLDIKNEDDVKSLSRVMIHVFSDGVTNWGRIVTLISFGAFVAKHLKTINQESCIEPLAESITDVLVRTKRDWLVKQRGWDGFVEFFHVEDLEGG

The test concerns the target Mcl-1 (Homo sapiens (Human), UniProt Q07820). As to the kind of experiment: Fluorescence polarization anisotropy (FPA) competition assay, FITC-Bak or FITC-Bim BH3 peptide. It counts as binding. Conditions: read-out: Ki for Inhibition of Mcl-1 by FPA assay. (In general: Fluorescence polarisation rises when a labelled molecule tumbles more slowly, as on binding a larger partner.)
For `Cc1cc(OCCCc2c(C(=O)NC3CCC(C(=O)O)CC3)[nH]c3c(-c4c(C)ncnc4C)c(Cl)ccc23)cc(C)c1Cl` (single isomer, unassigned) [Example 746, 4-(6-Chloro-3-(3-(4-chloro-3,5-dimethylphenoxy)propyl)-7-(4,6-dimethylpyrimidin-5-yl)-1H-indole-2-carboxamido)cyclohexane-1-carboxylic acid], the Ki came out at 5.2 nM.
Turning to `Cc1cc(OCCCc2c3n(c4c(-c5c(C)nn(C)c5C)c(Cl)ccc24)CCCN(c2ccc4c(c2)CCCN4CC(=O)O)C3=O)cc(C)c1Cl` [Example 46, 2-(6-(8-Chloro-11-(3-(4-chloro-3,5-dimethylphenoxy)propyl)-1-oxo-7-(1,3,5-trimethyl-1H-pyrazol-4-yl)-4,5-dihydro-1H-[1,4]diazepino[1,2-a]indol-2(3H)-yl)-3,4-dihydroquinolin-1(2H)-yl)acetic acid], the Ki was determined as 26 nM.
In the case of `Cc1cc(OCCCc2c3n(c4c(-c5c(C)nn(C)c5C)c(Cl)ccc24)CCCN(c2cccc4c(C#N)cn(C)c24)C3=O)cc(C)c1Cl` [Example 6, 7-[8-Chloro-11-[3-(4-chloro-3,5-dimethyl-phenoxy)propyl]-1-oxo-7-(1,3,5-trimethylpyrazol-4-yl)-4,5-dihydro-3H-[1,4]diazepino[1,2-a]indol-2-yl]-1-methyl-indole-3-carbonitrile], the Ki is 54 nM.
With `Cc1cc(OCCCc2c3n(c4c(-c5c(C)nn(C)c5C)c(Cl)ccc24)CCCN(Cc2cc(C(=O)O)cc(N4CCN(C(=O)c5ccco5)CC4)n2)C3=O)cc(C)c1Cl` [Example 9, 2-((8-Chloro-11-(3-(4-chloro-3,5-dimethylphenoxy)propyl)-1-oxo-7-(1,3,5-trimethyl-1H-pyrazol-4-yl)-4,5-dihydro-1H-[1,4]diazepino[1,2-a]indol-2(3H)-yl)methyl)-6-(4-(furan-2-carbonyl)piperazin-1-yl)isonicotinic acid], the Ki is 20 nM.
As for `Cc1cc(OCCCc2c3n(c4c(-c5c(C)nn(C)c5C)c(Cl)ccc24)[C@H](C)CN(c2cnc4ccc(C(=O)O)cn24)C3=O)cc(C)c1Cl` [Example 473, (R)-3-(7-chloro-10-(3-(4-chloro-3,5-dimethylphenoxy)propyl)-4-methyl-1-oxo-6-(1,3,5-trimethyl-1H-pyrazol-4-yl)-3,4-dihydropyrazino[1,2-a]indol-2(1H)-yl)imidazo[1,2-a]pyridine-6-carboxylic acid], the Ki was found to be 4.1 nM.
With `Cc1cc(OCCCc2c(C(=O)N3CCN(c4cccc(C(=O)O)c4)CC3)n(Cc3cccnc3)c3c(-c4c(C)nn(C)c4C)c(Cl)ccc23)cc(C)c1Cl` [Example 735, 3-(4-(6-chloro-3-(3-(4-chloro-3,5-dimethylphenoxy)propyl)-1-(pyridin-3-ylmethyl)-7-(1,3,5-trimethyl-1H-pyrazol-4-yl)-1H-indole-2-carbonyl)piperazin-1-yl)benzoic acid], the Ki came out at 52 nM.
The value for `Cc1cc(OCCCc2c3n(c4c(-c5c(C)nn(C)c5C)c(Cl)ccc24)CCCN(Cc2cc(C(=O)O)cc(N4CCNCC4)n2)C3=O)cc(C)c1Cl` [Example 10, 2-((8-Chloro-11-(3-(4-chloro-3,5-dimethylphenoxy)propyl)-1-oxo-7-(1,3,5-trimethyl-1H-pyrazol-4-yl)-4,5-dihydro-1H-[1,4]diazepino[1,2-a]indol-2(3H)-yl)methyl)-6-(piperazin-1-yl)isonicotinic acid] was 57 nM; that for `Cc1cc(OCCCc2c3n(c4c(-c5c(C)nn(C)c5C)c(Cl)ccc24)[C@H](C)CN(c2cccc4cc(C(=O)O)n(CC5CCN(C)C5)c24)C3=O)cc(C)c1Cl` (stereo partly drawn) [Example 320, 7-((R)-7-Chloro-10-(3-(4-chloro-3,5-dimethylphenoxy)propyl)-4-methyl-1-oxo-6-(1,3,5-trimethyl-1H-pyrazol-4-yl)-3,4-dihydropyrazino[1,2-a]indol-2(1H)-yl)-1-((1-methylpyrrolidin-3-yl)methyl)-1H-indole-2-carboxylic acid] was 2.7 nM; that for `COCCCc1c2n(c3c(-c4c(C)nn(C)c4C)c(Cl)ccc13)[C@H](C)CN(c1cn(C)c3ccc(C(=O)O)cc13)C2=O` [Example 406, (R)-3-(7-Chloro-10-(3-methoxypropyl)-4-methyl-1-oxo-6-(1,3,5-trimethyl-1H-pyrazol-4-yl)-3,4-dihydropyrazino[1,2-a]indol-2(1H)-yl)-1-methyl-1H-indole-5-carboxylic acid] was greater than 250 nM.
The value for `Cc1cc(OCCCc2c3n(c4c(-c5c(C)nn(C)c5C)c(Cl)ccc24)[C@H](C)CN(c2cn(C)c4ccc(-c5nnc(C6CCCCC6)o5)cc24)C3=O)cc(C)c1Cl` [Example 413, (R)-7-Chloro-10-(3-(4-chloro-3,5-dimethylphenoxy)propyl)-2-(5-(5-cyclohexyl-1,3,4-oxadiazol-2-yl)-1-methyl-1H-indol-3-yl)-4-methyl-6-(1,3,5-trimethyl-1H-pyrazol-4-yl)-3,4-dihydropyrazino[1,2-a]indol-1(2H)-one] was 3.5 nM; that for `Cc1nn(C)c(C)c1-c1c(Cl)ccc2c(CCCOCC3CC3)c3n(c12)[C@H](C)CN(c1cn(C)c2ccc(C(=O)O)cc12)C3=O` [Example 404, (R)-3-(7-chloro-10-(3-(cyclopropylmethoxy)propyl)-4-methyl-1-oxo-6-(1,3,5-trimethyl-1H-pyrazol-4-yl)-3,4-dihydropyrazino[1,2-a]indol-2(1H)-yl)-1-methyl-1H-indole-5-carboxylic acid] was 44 nM; that for `Cc1cc(OCCCc2c3n(c4c(-c5c(C)nn(C)c5C)c(Cl)ccc24)CCCN(C2=CNC(C(=O)O)=C(O)N2)C3=O)cc(C)c1Cl` [Example 73, 5-(8-Chloro-11-(3-(4-chloro-3,5-dimethylphenoxy)propyl)-1-oxo-7-(1,3,5-trimethyl-1H-pyrazol-4-yl)-4,5-dihydro-1H-[1,4]diazepino[1,2-a]indol-2(3H)-yl)-3-hydroxy-1,4-dihydropyrazine-2-carboxylic acid] was less than 1 nM.
Turning to `CCn1ncc2c(C(=O)O)cc(N3C[C@@H](C)n4c(c(CCCOc5cc(C)c(Cl)c(C)c5)c5ccc(Cl)c(-c6c(C)nn(C)c6C)c54)C3=O)cc21` [Example 87, (R)-6-(7-chloro-10-(3-(4-chloro-3,5-dimethylphenoxy)propyl)-4-methyl-1-oxo-6-(1,3,5-trimethyl-1H-pyrazol-4-yl)-3,4-dihydropyrazino[1,2-a]indol-2(1H)-yl)-1-ethyl-1H-indazole-4-carboxylic acid], the inhibitory constant (Ki) is less than 1 nM.
As for `Cc1cc(OCCCc2c3n(c4c(-c5c(C)nn(C)c5C)c(Cl)ccc24)[C@H](C)CN(c2ccc4nc(C(=O)O)cn4c2)C3=O)cc(C)c1Cl` [Example 139, (R)-6-(7-chloro-10-(3-(4-chloro-3,5-dimethylphenoxy)propyl)-4-methyl-1-oxo-6-(1,3,5-trimethyl-1H-pyrazol-4-yl)-3,4-dihydropyrazino[1,2-a]indol-2(1H)-yl)imidazo[1,2-a]pyridine-2-carboxylic acid], the inhibition constant (Ki) came out at 1.1 nM.
Next, `Cc1cc(OCCCc2c3n(c4c(-c5c(C)ncnc5C)c(Cl)ccc24)[C@H](C)CN(c2cccc4cccc(C(=O)O)c24)C3=O)cc(C)c1Cl` [Example 255, 8-[(4R)-7-chloro-10-[3-(4-chloro-3,5-dimethyl-phenoxy)propyl]-6-(4,6-dimethylpyrimidin-5-yl)-4-methyl-1-oxo-3,4-dihydropyrazino[1,2-a]indol-2-yl]naphthalene-1-carboxylic acid]: 1.3 nM; `Cc1ccc(S(=O)(=O)N2CCN(c3cc(C(=O)O)cc(CN4CCCn5c(c(CCCOc6cc(C)c(Cl)c(C)c6)c6ccc(Cl)c(-c7c(C)nn(C)c7C)c65)C4=O)n3)CC2)o1` [Example 27, 2-((8-chloro-11-(3-(4-chloro-3,5-dimethylphenoxy)propyl)-1-oxo-7-(1,3,5-trimethyl-1H-pyrazol-4-yl)-4,5-dihydro-1H-[1,4]diazepino[1,2-a]indol-2(3H)-yl)methyl)-6-(4-((5-methylfuran-2-yl)sulfonyl)piperazin-1-yl)isonicotinic acid]: 39 nM; `Cc1cc(OCCCc2c(C(=O)N3CCN(c4cccc(C(=O)O)c4)CC3)[nH]c3c(-c4c(C)nn(C)c4C)c(Cl)ccc23)cc(C)c1Cl` [Example 732, 3-(4-(6-chloro-3-(3-(4-chloro-3,5-dimethylphenoxy)propyl)-7-(1,3,5-trimethyl-1H-pyrazol-4-yl)-1H-indole-2-carbonyl)piperazin-1-yl)benzoic acid]: 38 nM.
For `Cc1cc(OCCCc2c3n(c4c(-c5c(C)nn(C)c5C)c(Cl)ccc24)[C@H](C)CN(c2cccc4c2c(C(=O)O)nn4C)C3=O)cc(C)c1Cl` [Example 127, 4-[(4R)-7-chloro-10-[3-(4-chloro-3,5-dimethyl-phenoxy)propyl]-4-methyl-1-oxo-6-(1,3,5-trimethylpyrazol-4-yl)-3,4-dihydropyrazino[1,2-a]indol-2-yl]-1-methyl-indazole-3-carboxylic acid], the Ki is less than 1 nM.
As for `Cc1cc(CCCCc2c(C(=O)N3CCN(c4ccnc(C(=O)O)c4)CC3)n(Cc3cccnc3)c3c(-c4c(C)nn(C)c4C)c(Cl)ccc23)cc(C)c1Cl` [Example 742, 4-(4-(6-Chloro-3-(4-(4-chloro-3,5-dimethylphenyl)butyl)-1-(pyridin-3-ylmethyl)-7-(1,3,5-trimethyl-1H-pyrazol-4-yl)-1H-indole-2-carbonyl)piperazin-1-yl)picolinic acid], the Ki is greater than 200 nM.
Turning to `Cc1cc(OCCCc2c3n(c4c(-c5c(C)cccc5C)c(Cl)ccc24)CCCN(c2cc(C(=O)O)c4ccn(C)c4c2)C3=O)cc(C)c1Cl` [Example 91, 6-[8-Chloro-11-[3-(4-chloro-3,5-dimethyl-phenoxy)propyl]-7-(2,6-dimethylphenyl)-1-oxo-4,5-dihydro-3H-[1,4]diazepino[1,2-a]indol-2-yl]-1-methyl-indole-4-carboxylic acid], the Ki was 7.3 nM.
For `Cc1cc(OCCCc2c3n(c4c(-c5c(C)nn(CC(=O)O)c5C)c(Cl)ccc24)CCCN(c2ccccc2)C3=O)cc(C)c1Cl` [Example 136, 2-(4-(8-Chloro-11-(3-(4-chloro-3,5-dimethylphenoxy)propyl)-1-oxo-2-phenyl-2,3,4,5-tetrahydro-1H-[1,4]diazepino[1,2-a]indol-7-yl)-3,5-dimethyl-1H-pyrazol-1-yl)acetic acid], the Ki is less than 1 nM.
